Source: PubChem BioAssay (NCI)
Values joined by “and” are separate entries in the source; they are usually repeats but may differ in a detail not shown here. Equal entries are not always repeated.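 In this assay, cells in 96-well plates receive the compound at five concentrations for 48 hours. Endpoints are linearly interpolated between the surrounding concentrations. GI50 marks 50% less growth. Definition used: TGI = concentration required for complete inhibition of growth.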

What was measured:
Experiment in all cases: NCI anticancer screen, dose series, 48 h
[1] = tested on: BT-549 breast
[2] = tested on: DU-145 prostate
[3] = tested on: HS 578T breast
[4] = tested on: MCF7 breast
[5] = tested on: NCI/ADR-RES ovarian
[6] = tested on: T-47D breast

Cc1ccc(-c2c3c(N)c4c(nc3nc3c2c(C)nn3-c2ccccc2)CCC4)cc1
GI50 [1]: 20.7 µM | TGI [1]: 45.5 µM | GI50 [2]: 2.21 µM | TGI [2]: 4.68 µM | GI50 [3]: 5.03 µM | TGI [3]: 15.6 µM | GI50 [4]: 1.75 µM | TGI [4]: 4.34 µM | GI50 [5]: 8.23 µM | TGI [5]: 32.3 µM | GI50 [6]: 2.18 µM | TGI [6]: 5.08 µM

O=C1C=C(OCCCl)C(=O)c2c(O)ccc(O)c21
TGI [1]: 0.477 µM | GI50 [2]: 1.01 µM | TGI [2]: 0.746 µM and 2.29 µM | GI50 [4]: 0.399 µM | TGI [4]: 0.472 µM and 1.75 µM | GI50 [5]: 9.41 µM | TGI [6]: 4.52 µM

Nc1ccccc1C#C/C=C\C#Cc1ccccc1F
GI50 [1]: 4.06 µM | TGI [1]: 18.1 µM | GI50 [2]: 5.49 µM | TGI [2]: 28 µM | GI50 [3]: 2.09 µM | TGI [3]: 5.1 µM | GI50 [4]: 3.2 µM | TGI [4]: > 100 µM | GI50 [5]: 2.47 µM | TGI [5]: 6.73 µM | GI50 [6]: 8.05 µM | TGI [6]: > 100 µM

CN(C)c1ncnc2c1ccn2C1OC(CO)C(O)C1O (centres undefined)
GI50 [1]: 3.98 µM | TGI [1]: > 100 µM | GI50 [2]: 0.386 µM | TGI [2]: 2.94 µM | GI50 [3]: 2.71 µM | TGI [3]: 40.2 µM | GI50 [4]: 0.115 µM | TGI [4]: 7.32 µM | GI50 [5]: 1.3 µM | TGI [5]: > 30.1 µM | GI50 [6]: 0.0621 µM | TGI [6]: 1.61 µM

NCCSC(C[N+](=O)[O-])c1ccccc1Cl (centres undefined)
GI50 [1]: 2.03 µM | TGI [1]: 4.26 µM | GI50 [2]: 1.92 µM | TGI [2]: 3.62 µM | GI50 [3]: 2.46 µM | TGI [3]: 7.63 µM | GI50 [4]: 1.13 µM | TGI [4]: 3.2 µM | GI50 [5]: 9.85 µM | TGI [5]: > 23.4 µM | GI50 [6]: 2.23 µM | TGI [6]: 9.09 µM

CC(C)=CCc1cc(C2COc3cc4c(c(O)c3C2=O)C=CC(C)(C)O4)c(O)cc1O (centres undefined)
TGI [1]: 33.3 µM | TGI [2]: 27.9 µM | TGI [3]: 39.9 µM | TGI [4]: 33.5 µM | TGI [5]: 79.4 µM | TGI [6]: 27.2 µM

O=c1[nH]nc(-c2ccccc2)c2c(-c3ccccc3)onc12
GI50 [1]: 0.506 µM | TGI [1]: > 47.8 µM | GI50 [2]: 1.79 µM | TGI [2]: 27.2 µM | GI50 [3]: 0.255 µM | TGI [3]: 1.37 µM | GI50 [4]: 0.368 µM | TGI [4]: > 100 µM | GI50 [5]: 0.331 µM | TGI [5]: > 100 µM | GI50 [6]: 0.595 µM | TGI [6]: > 46 µM

CCc1c2c(nc3ccc(OCc4ccc(B5OC(C)(C)C(C)(C)O5)cc4)cc13)-c1cc3c(c(=O)n1C2)COC(=O)[C@]3(O)CC
GI50 [1]: 0.0757 µM | TGI [1]: > 100 µM | GI50 [2]: 0.0223 µM | TGI [2]: > 49.8 µM | GI50 [3]: 1.11 µM | TGI [3]: > 100 µM | GI50 [5]: 0.0622 µM | TGI [5]: > 100 µM | GI50 [6]: < 0.01 µM | TGI [6]: > 100 µM

CN(C)N=Nc1nn(C(=O)Nc2ccc(Cc3ccccc3)cc2)c2ccccc12
GI50 [1]: 25.7 µM | TGI [1]: > 100 µM | GI50 [2]: > 100 µM | TGI [2]: > 100 µM | GI50 [3]: > 100 µM | TGI [3]: > 100 µM | GI50 [4]: 0.387 µM | TGI [4]: > 100 µM | GI50 [5]: 0.957 µM | TGI [5]: > 100 µM | GI50 [6]: 0.0719 µM | TGI [6]: > 100 µM

Cc1ccc([N+](=O)[O-])c2c(NCCC[N+](C)(C)[O-])ccnc12
TGI [2]: > 100 µM | TGI [3]: > 100 µM | TGI [4]: 38.1 µM | TGI [5]: > 100 µM | TGI [6]: > 100 µM

COc1ccc(C=C2C(=O)NC(=O)NC2=O)cc1OCc1ccccc1
GI50 [1]: 16.8 µg/mL | TGI [1]: 43.2 µg/mL | GI50 [3]: 27.1 µg/mL | GI50 [4]: 59.6 µg/mL | GI50 [5]: 39.4 µg/mL

C=C1C(=O)O[C@H]2[C@H]1CC/C(CNC(=O)/C=C/c1ccc(Cl)cc1Cl)=C\CC[C@@]1(C)O[C@@H]21
GI50 [1]: 0.975 µM | TGI [1]: 2.59 µM | GI50 [2]: 0.594 µM | TGI [2]: 1.89 µM | GI50 [3]: 2.09 µM | TGI [3]: 8.23 µM | GI50 [5]: 2.57 µM | TGI [5]: 12.8 µM | GI50 [6]: 1.18 µM | TGI [6]: 3.45 µM

COC1C(O)C(C)OC(O[C@@H]2C[C@H]3CC[C@@H]4[C@H](CC[C@]5(C)[C@@H](C6=CC(=O)OC6)CC[C@]45O)[C@@]3(C)[C@H](O)C2)C1O (some centres undefined)
TGI [1]: 0.159 µM | TGI [2]: 0.0812 µM | TGI [3]: > 100 µM | TGI [5]: 0.183 µM | TGI [6]: 0.817 µM

Cc1cn(Cc2ccccc2CCl)c(=O)n(Cc2ccccc2CCl)c1=O
GI50 [1]: 1.85 µM | TGI [1]: 3.52 µM | GI50 [2]: 1.93 µM | TGI [2]: 3.68 µM | GI50 [3]: 2.65 µM | TGI [3]: 15.1 µM | GI50 [4]: 1.36 µM | TGI [4]: 4.77 µM | GI50 [5]: 2.22 µM | TGI [5]: 6.36 µM

COc1cc2c(cc1OCCCCCn1c3ccccc3c3ccccc31)N=C[C@@H]1CCCN1C2=O
GI50 [1]: 2.03 µM | TGI [1]: 4.31 µM | GI50 [2]: 2.23 µM | TGI [2]: 4.67 µM | GI50 [4]: 2.33 µM | TGI [4]: 9.19 µM | GI50 [5]: 2.14 µM | TGI [5]: 4.75 µM | GI50 [6]: 2.79 µM | TGI [6]: 9.24 µM

CCCCN(CCCC)CCC(O)c1cc2ccc(C(F)(F)F)cc2c2cc(C(F)(F)F)ccc12 (centres undefined)
GI50 [2]: 6.15 µM | TGI [2]: 18.7 µM | GI50 [3]: 1.55 µM | TGI [3]: 4.62 µM | GI50 [4]: 1.62 µM | TGI [4]: 3.74 µM | GI50 [5]: 2.69 µM | TGI [5]: 11.9 µM | GI50 [6]: 3.09 µM | TGI [6]: 12.9 µM

COc1ccc(OC)c(/C=N/N=C2\C(=O)Nc3c(Cl)cc(Cl)cc32)c1
TGI [1]: 72.5 µM | TGI [3]: 83.5 µM | TGI [4]: > 100 µM | TGI [5]: > 100 µM

O=C(NN1C(=O)CSC12CCC(c1ccccc1)CC2)c1[nH]c2ccc(F)cc2c1-c1ccccc1 (centres undefined)
GI50 [1]: 19.9 µM | TGI [1]: 34.8 µM | GI50 [2]: 16.5 µM | TGI [2]: 33.6 µM | GI50 [3]: 21.4 µM | TGI [3]: 52.3 µM | GI50 [4]: 25.3 µM | TGI [4]: 71.8 µM | GI50 [6]: 33.5 µM | TGI [6]: > 100 µM
